Measurements reported in patent US11905279B1, “Benzylidene derivatives of fenobam as anti-inflammatory agents” (KING FAISAL UNIVERSITY, priority 2023, dated 2024).

Key:
human COX-2 = molecular target: T1, human COX-2 (Homo sapiens, UniProt P35354); assay: Cyclooxygenase (COX-2) enzyme inhibition assay, COX (human) Inhibitor Screening Assay Kit; type: biochemical; conditions: compound at 10 μM; in vitro, human COX-2 isoenzyme; ELISA incubation 18 hours; read-out: % Inhibition( COX2) Mean ± SEM
T1 construct: purchased
T1 sequence (P35354 18-604): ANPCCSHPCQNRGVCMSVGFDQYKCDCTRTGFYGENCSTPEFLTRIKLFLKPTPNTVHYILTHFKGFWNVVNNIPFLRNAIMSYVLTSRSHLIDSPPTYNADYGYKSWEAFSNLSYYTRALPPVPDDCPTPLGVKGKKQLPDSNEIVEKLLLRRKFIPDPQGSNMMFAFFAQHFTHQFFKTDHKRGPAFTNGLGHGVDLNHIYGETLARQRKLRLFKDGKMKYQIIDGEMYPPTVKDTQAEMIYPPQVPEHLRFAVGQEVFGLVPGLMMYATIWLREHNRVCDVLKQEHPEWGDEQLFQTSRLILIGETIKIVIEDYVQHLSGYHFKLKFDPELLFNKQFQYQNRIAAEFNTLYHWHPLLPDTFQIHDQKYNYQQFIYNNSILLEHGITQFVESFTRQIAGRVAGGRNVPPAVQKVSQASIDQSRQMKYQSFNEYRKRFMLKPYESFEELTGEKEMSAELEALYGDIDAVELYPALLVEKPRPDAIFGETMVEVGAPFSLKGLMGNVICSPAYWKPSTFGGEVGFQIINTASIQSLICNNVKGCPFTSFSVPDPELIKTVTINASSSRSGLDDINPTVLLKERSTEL
Experimental: (§1) According to manufacturer instructions, a COX inhibition assay was performed using COX (human) Inhibitor Screening Assay Kit for the compounds 5c, 5d, 5h, 5k, 5l, 5m, and 6d. All reagents and buffers were prepared in ultrapure water. All stock solutions of the compounds and the positive controls (Indomethacin and Celecoxib) were dissolved in DMSO. In each inhibitor sample tube, 160 μL reaction buffer, 10 μL of heme, 10 μL of diluted COX-1 or COX-2 enzyme, and 10 μL of the diluted inhibitor was added to get a final concentration of 100 μM. […] 10 μL of the vehicle control (DMSO) was added to the background tubes, and COX enzyme's 100% initial activity was obtained. All reaction tubes were incubated for 10 minutes at 37° C. Following this incubation, 10 μL of the substrate, arachidonic acid (AA), was added to all test tubes, mixed, and further incubated for precisely 30 seconds at 37° C. Then, 30 μL of SnCl2 solution was added to each reaction tube to stop the enzyme catalysis. All reaction tubes were removed from the incubator, vortexed, and incubated again for 5 min at room temperature. Reaction tubes were stored at 4° C. to quantify the prostaglandin formation by competitive enzyme-linked immunosorbent assay (ELISA). ELISA standards were prepared in test tubes to perform the competitive ELISA, and dilutions were prepared with the ELISA buffer. The standards, COX reaction dilutions, and background samples were serially diluted. After that, 50 μL of the diluted standards, COX background, COX 100% initial activity, and COX inhibitor samples were transferred to the corresponding wells of 96 well ELISA plate. Blank (to assess the background absorbance caused by Ellman's reagent) and total activity (TA) (to determine the enzymatic activity of the AChE-linked tracer) wells were left empty, 100 μL and 50 μL of the ELISA buffer were added to the nonspecific binding (NSB) and maximum binding (BO), respectively. Prostaglandin screening AChE tracer (50 μL) and prostaglandin screening ELISA antiserum (50 μL) were added to corresponding wells except for TA. The plate was covered with a plastic film, wrapped with foil to protect from light, and incubated for 18 hours at room temperature. Following incubation, the plate was washed and developed with 200 μL of Ellman's reagent to all wells, and 5 μL of tracer was added to TA well. The plate was covered with foil, placed on an orbital shaker, and incubated for 60-90 minutes. Finally, the plate reading was done at a wavelength of 405 nm with a Microplate reader from BioTek (by Agilent), and data were collected using Gen5™ (by Agilent) analysis software.
(§2) In vitro catalytic inhibition data of compounds 5c, 5d, 5h, 5k, 5l, 5m, and 6d at 10 μM against human COX-1 and COX-2 isoenzymes is listed in Table 1.

human COX-1 = molecular target: T2, human COX-1 (Homo sapiens, UniProt P23219); assay: Cyclooxygenase (COX-1) enzyme inhibition assay, COX (human) Inhibitor Screening Assay Kit; type: biochemical; conditions: compound at 10 μM; in vitro, human COX-1 isoenzyme; ELISA incubation 18 hours; read-out: % Inhibition( COX1) Mean ± SEM
T2 construct: purchased
Experimental: as §1, §2

T2 sequence (P23219 24-599): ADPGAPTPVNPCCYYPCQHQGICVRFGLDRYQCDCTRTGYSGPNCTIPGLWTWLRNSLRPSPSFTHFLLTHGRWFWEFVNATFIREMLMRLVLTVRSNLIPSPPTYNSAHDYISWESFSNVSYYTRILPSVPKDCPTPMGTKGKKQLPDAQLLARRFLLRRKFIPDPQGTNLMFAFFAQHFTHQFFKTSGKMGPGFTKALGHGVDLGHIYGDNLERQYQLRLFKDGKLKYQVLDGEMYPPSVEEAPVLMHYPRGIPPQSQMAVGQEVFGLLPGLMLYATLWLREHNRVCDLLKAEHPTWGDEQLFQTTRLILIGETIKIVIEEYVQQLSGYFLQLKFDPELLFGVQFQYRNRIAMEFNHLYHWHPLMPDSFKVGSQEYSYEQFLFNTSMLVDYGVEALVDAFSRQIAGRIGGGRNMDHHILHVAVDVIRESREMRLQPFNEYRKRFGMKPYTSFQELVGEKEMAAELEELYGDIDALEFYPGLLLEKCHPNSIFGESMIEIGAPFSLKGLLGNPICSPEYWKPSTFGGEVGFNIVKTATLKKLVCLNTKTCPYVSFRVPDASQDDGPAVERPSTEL

SMILES | inhibition at 10 µM (human COX-2) | inhibition at 10 µM (human COX-1)
CN1/C(=C\c2ccc(Br)o2)C(=O)N/C1=N\C(=O)Nc1ccccc1F [Compound 5c, 1-{(2E,5Z)-5-[(5-Bromofuran-2-yl)methylidene]-1-methyl-4-oxoimidazolidin-2-ylidene}-3-(2-fluorophenyl)urea] | 78 ± 15.5% | 17 ± 6.5%
CN1/C(=C\c2ccc(-c3ccccc3[N+](=O)[O-])o2)C(=O)N/C1=N\C(=O)Nc1ccccc1F [Compound 5d, 1-(2-Fluorophenyl)-3-[(2E,5Z)-1-methyl-5-{[5-(2-nitrophenyl)furan-2-yl]methylidene}-4-oxoimidazolidin-2-ylidene]urea] | 97 ± 0.5% | 57 ± 0.15%
CN1/C(=C\c2ccc(-c3ccccc3[N+](=O)[O-])o2)C(=O)N/C1=N\C(=O)Nc1cccc(F)c1 [Compound 5h, 1-(3-Fluorophenyl)-3-[(2E,5Z)-1-methyl-5-{[5-(2-nitrophenyl)furan-2-yl]methylidene}-4-oxoimidazolidin-2-ylidene]urea] | 39 ± 2% | 51 ± 7%
CN1/C(=C\c2ccc(Br)o2)C(=O)N/C1=N\C(=O)Nc1ccc(F)cc1 [Compound 5k, 1-{(2E,5Z)-5-[(5-Bromofuran-2-yl)methylidene]-1-methyl-4-oxoimidazolidin-2-ylidene}-3-(4-fluorophenyl)urea] | 89 ± 3% | 26 ± 6.5%
CN1/C(=C\c2ccc(-c3ccccc3[N+](=O)[O-])o2)C(=O)N/C1=N\C(=O)Nc1ccc(F)cc1 [Compound 5l, 1-(4-Fluorophenyl)-3-[(2E,5Z)-1-methyl-5-{[5-(2-nitrophenyl)furan-2-yl]methylidene}-4-oxoimidazolidin-2-ylidene]urea] | 20 ± 5.5% | 31 ± 2.5%
CN1/C(=C\c2ccc([N+](=O)[O-])cc2)C(=O)N/C1=N\C(=O)Nc1ccc(Cl)cc1Cl [Compound 5m, 1-(2,4-Dichlorophenyl)-3-[(2E,5Z)-1-methyl-5-(4-nitrobenzylidene)-4-oxoimidazolidin-2-ylidene]urea] | 69 ± 2.5% | 5 ± 23.5%
CN1/C(=C\c2ccc(-c3ccccc3[N+](=O)[O-])o2)C(=O)N/C1=N\C(=S)Nc1cccc(Cl)c1 [Compound 6d, 1-(3-Chlorophenyl)-3-[(2E,5Z)-1-methyl-5-{[5-(2-nitrophenyl)furan-2-yl]methylidene}-4-oxoimidazolidin-2-ylidene]thiourea] | 54 ± 8.5% | -14 ± 5.5%
